Data on 21 compounds can be found in US9409868B2, “Inhibitors of rho associated protein kinases (ROCK) and methods of use” (H. LEE MOFFITT CANCER CENTER AND RESEARCH INSTITUTE, INC., priority 2012, dated 2016).

Test [1] has as its target ROCK1 (Homo sapiens (Human), UniProt Q13464). The experiment in a line: Z-Lyte FRET kinase assay, ROCK1. It is filed as biochemical. The source says: (§1) Kinase Assay. A robust FRET-based, enzyme-coupled assay format, Z-Lyte® Kinase Assay Ser/[…] Peptide Kit (Invitrogen, cat. PV3793), was employed in this study to monitor inhibition of ROCK1 (Invitrogen, cat. PV3691) and ROCK2 (Invitrogen, cat. PV3759) enzyme activities. […] The substrate contains both coumarin and fluorescein and only uncleaved […] substrate will undergo FRET. […] A known inhibitor, Y-27632 (Tocris Bioscience, cat. 1254), is used as a control compound.

Test [2] deals with T1, ROCK2 (Homo sapiens (Human), UniProt O75116). Nature of the test: Z-Lyte FRET kinase assay, ROCK2. It is filed as biochemical.
Source text: as §1

Test [3] addresses Aurora-A (Homo sapiens (Human), UniProt O14965). Nature of the test: Aurora-A inhibition (selectivity). In kind it is biochemical. Particulars: FIG. 2.
Test [4] addresses T1, ROCK2. Particulars: Feng et al. 2008; read-out: ROCK2 enzymatic activity IC50 (reported); cited from earlier work.
The test system of test [5] is NIH 3T3 cells. The experiment in a line: Cell morphology assay (phalloidin staining) in starved NIH 3T3 cells. Particulars: starved NIH 3T3, FIG. 6. In kind it is cell-based. Details: dose or concentration left out as unconfirmed. Here is the method:
Cell Morphology Assay. NIH 3T3 cells were plated at 8000 cells per well in 8-chamber slide in serum-free media (serum starvation) for 24 h. After serum starvation, the cells were treated with vehicle or the RKIs for 1 h. After treatment, the cells were stimulated with […] LPA, 200 ng/ml bradykinin or 30 ng/ml PDGF for 30 min. After stimulation, the cells were fixed with 4% paraformaldehyde, permeabilized using 0.1% Triton X-100 and stained with Texas-Red phalloidin (Cat no. T7471) (Invitrogen, Eugene, Oreg., USA) and DAPI (40,6 diamidino-2-phenylindole: counterstains DNA) (Cat no. H-1200; Vector Laboratories, Burlingame, Calif., USA). The cells were imaged using Zeiss Upright Fluorescence Microscope.

Test [6] deals with MDA-MB-231 cells. Nature of the test: Soft agar anchorage-independent growth assay. In kind it is cell-based, human. Here is the method:
Soft Agar Assay. MDA-MB-231 cells were seeded in a 12-well tissue culture plate at 1200 cells per well in regular growth media and 0.3% agar. The cells were treated with different doses of RKI-11 and RKI-18, allowed to grow for 4 weeks, after which the colonies were stained overnight with 1 mg/ml MTT and counted.

Test [7] has as its system MDA-MB-231 cells. The experiment in a line: Wound-healing scratch migration assay. Particulars: for inhibition of migration (wound-healing scratch assay): FIG. 8a. In kind it is cell-based, human. The procedure: Wound-Healing-Migration Assay. MDA-MB-231 cells were seeded at 4_105 cells per well in a 6-well plate and allowed to grow overnight at 37 1C and 5% CO2. The cells were starved for 24 h and scratched. The cells were then treated with different concentrations of RKIs in regular growth media for 24 h. Images of the scratch were acquired at 0 h and 24 h.

The subject of test [8] is MDA-MB-231 cells. Nature of the test: Matrigel Transwell invasion assay. It is filed as cell-based, human. Particulars: for inhibition of invasion (figure legend): FIG. 8. Here is the method: Invasion Assay. Invasion assay was performed in Corning Transwell inserts coated with Matrigel. MDA-MB-231 cells were seeded at 3.5_105 and allowed to grow overnight in a 6-well plate. The cells were treated with either vehicle or different doses of RKIs for 24 h. After treatment, the cells were trypsinized, resuspended and plated in the inserts. The bottom chamber contained 20% FBS as the ‘chemoattractant’. The cells were kept in the incubator for 48 h. After incubation, the cells were stained and membrane was quantified.

Test [9] concerns phosphorylation of MLC2 (ROCK substrate) in MDA-MB-231 cells. The experiment in a line: Western blot of MLC2 phosphorylation in MDA-MB-231 breast cancer cells. Particulars: 1 hr, MDA-MB-231, FIG. 4. It is filed as cell-based, human. Here is the method: Western Blot Analysis. MDA-MB-468, MDA-MB-231, MCF-7, DU-145, H460, A549, HT29 and HCT116 cells (ATCC, Rockville, Md., USA) were plated in 6-well tissue culture plate. The cells were then treated next day with different concentrations of the RKIs for 1 h. After incubation, the cells were harvested, lysed, quantified and blotted for P-MLC2 (Cat no. 3671S), total-MLC2 (Cat no. 3672S), P-MEK (S298) (Cat no. 9128S), total-MEK (Cat no. 9122S), P-S6 (Cat no. 2155S), total-S6 (2217S), P-Erk (Cat no. 9101L), total Erk (Cat no. 9102L), P-Akt (Cat no. 9271L), total Akt (Cat no. 9272L) (Cell Signaling, Danvers, Mass., USA) and tubulin (Cat no. 5168) (Sigma, St Louis, Mo., USA) antibodies as described by us previously
Background: Immunoblotting shows a protein as a band on a membrane.

Test [10] relates to MDA-MB-231 cells. The experiment in a line: MTT assay, anchorage-dependent proliferation. It is filed as cell-based, human. The procedure: MTT Assay. MTT assay was performed to determine the effects of RKIs on anchoragedependent cell proliferation. Briefly, cells were plated in a 96-well tissue culture plate (1200 cells per well) and incubated for 24 h. After incubation, the cells were treated with vehicle or increasing concentrations of RKI-11 or RKI-18 ([…]). After 72 h incubation, freshly prepared MTT (2 mg/ml) was added to each well and incubated for 3 h. After incubation, the plates were read at 540 nm.
For orientation: Formazan colour is commonly taken as a measure of viable cells.

For test [11], the system named is MDA-MB-231 cells. The experiment in a line: Apoptosis by caspase 3 activation and PARP cleavage. It is filed as cell-based, human. Particulars: up to 30 mM (so in the source).

The structures appear in SMILES notation. Where two headings read alike, the source gives them in different places.

ROCK1, sequence (Q13464 whole entry): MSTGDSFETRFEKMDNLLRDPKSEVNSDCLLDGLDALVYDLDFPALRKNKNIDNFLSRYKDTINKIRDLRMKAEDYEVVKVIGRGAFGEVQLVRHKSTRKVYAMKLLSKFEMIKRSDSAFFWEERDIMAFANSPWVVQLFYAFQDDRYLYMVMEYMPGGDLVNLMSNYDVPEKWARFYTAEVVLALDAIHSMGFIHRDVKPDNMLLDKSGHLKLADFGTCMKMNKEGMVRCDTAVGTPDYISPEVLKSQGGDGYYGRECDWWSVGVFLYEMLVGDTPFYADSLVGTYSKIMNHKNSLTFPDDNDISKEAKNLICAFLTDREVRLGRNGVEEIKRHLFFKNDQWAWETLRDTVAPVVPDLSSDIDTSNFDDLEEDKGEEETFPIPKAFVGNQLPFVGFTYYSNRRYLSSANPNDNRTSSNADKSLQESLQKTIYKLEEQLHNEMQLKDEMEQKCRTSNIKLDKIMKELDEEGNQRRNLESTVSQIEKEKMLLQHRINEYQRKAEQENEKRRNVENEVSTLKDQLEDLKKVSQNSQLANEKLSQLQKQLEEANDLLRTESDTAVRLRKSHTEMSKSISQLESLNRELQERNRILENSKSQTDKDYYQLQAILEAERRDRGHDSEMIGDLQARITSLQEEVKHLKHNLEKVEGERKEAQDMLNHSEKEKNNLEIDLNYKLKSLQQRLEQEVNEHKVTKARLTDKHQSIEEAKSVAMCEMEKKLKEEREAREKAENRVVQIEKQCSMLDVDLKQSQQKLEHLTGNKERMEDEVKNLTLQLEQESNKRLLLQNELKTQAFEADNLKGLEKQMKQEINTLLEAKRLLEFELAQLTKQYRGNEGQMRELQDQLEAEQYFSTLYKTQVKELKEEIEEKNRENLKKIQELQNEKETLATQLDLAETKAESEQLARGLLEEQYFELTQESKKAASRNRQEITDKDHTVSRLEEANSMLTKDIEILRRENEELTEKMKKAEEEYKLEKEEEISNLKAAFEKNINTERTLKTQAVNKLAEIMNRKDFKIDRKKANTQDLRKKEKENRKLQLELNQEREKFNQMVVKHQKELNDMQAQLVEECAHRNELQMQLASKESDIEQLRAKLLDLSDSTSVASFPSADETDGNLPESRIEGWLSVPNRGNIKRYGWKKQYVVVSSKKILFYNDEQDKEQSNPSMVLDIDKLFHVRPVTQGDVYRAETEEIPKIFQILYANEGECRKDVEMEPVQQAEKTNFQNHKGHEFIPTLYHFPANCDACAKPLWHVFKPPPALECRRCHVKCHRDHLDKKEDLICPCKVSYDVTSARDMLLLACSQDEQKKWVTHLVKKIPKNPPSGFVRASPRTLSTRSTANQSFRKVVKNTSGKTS
Aurora-A, sequence (O14965 whole entry): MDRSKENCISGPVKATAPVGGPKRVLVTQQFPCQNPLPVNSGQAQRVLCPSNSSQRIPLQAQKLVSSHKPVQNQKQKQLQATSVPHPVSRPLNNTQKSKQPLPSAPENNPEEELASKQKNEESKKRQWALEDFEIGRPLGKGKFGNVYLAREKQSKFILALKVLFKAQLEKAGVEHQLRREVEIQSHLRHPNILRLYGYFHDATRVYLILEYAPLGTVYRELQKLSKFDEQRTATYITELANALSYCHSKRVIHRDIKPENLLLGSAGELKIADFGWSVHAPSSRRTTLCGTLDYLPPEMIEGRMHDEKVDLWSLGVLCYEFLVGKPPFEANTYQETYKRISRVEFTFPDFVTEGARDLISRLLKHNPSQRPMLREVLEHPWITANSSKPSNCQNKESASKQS

By IC50 is commonly meant the midpoint of a concentration-inhibition curve. `O=C(Nc1nc(-c2ccncc2)cs1)C1COc2ccccc2O1` (stereo not shown) [CID5056270, reference compound]: the IC50 is 13 nM in [1] (values in nM), 0.56 nM in test [2] (values in nM), more than 100 µM in test [3] and less than 0.003 µM in test [4].
`O=C(Nc1ccncc1)c1cccnc1` [Compound 3, N-(Pyridin-4-yl)nicotinamide]: the IC50 in test [1] (triplicate experiments) came to 75500 nM; in [2] (triplicate experiments), 55900 ± 11300 nM.
For `O=C(Nc1ccncc1)c1cnccc1Cl` [Compound 4, 4-Chloro-N-(pyridin-4-yl)nicotinamide], the IC50 worked out at 72500 ± 6800 nM in test [1] (triplicate experiments) and 221000 ± 25700 nM in [2] (triplicate experiments).
Consider `O=C(Nc1ccncc1)c1cncc(Br)c1` [Compound 5, 5-Bromo-N-(pyridin-4-yl)nicotinamide], for which the IC50 in test [1] (triplicate experiments) was determined as 270000 ± 51000 nM; in [2] (triplicate experiments), 357000 ± 35300 nM.
Consider `Nc1ccc2[nH]ncc2c1` [Compound 8, 5-Aminoindazole], for which the IC50 in [1] was 181000 nM; in [2], 120000 nM.
Take `CN(C)C(=O)Nc1ccc2[nH]ncc2c1` [Compound 10, 3-(1H-Indazol-5-yl)-1,1-dimethylurea]: the IC50 in [1] (triplicate experiments) turned out to be 59000 nM; in test [2] (triplicate experiments) it was 36100 ± 5900 nM.
On to `O=C(Nc1ccccc1)Nc1ccc2[nH]ncc2c1` [Compound 11, 1-(1H-Indazol-5-yl)-3-phenylurea], for which the IC50 in test [1] (triplicate experiments) was found to be 157000 nM. In addition, in [2] (triplicate experiments), half-maximal inhibition (IC50) was put at 62000 nM. Moreover, in test [5], the “LPA-induced stress fiber formation” value was “not” and the bradykinin-induced filopodia formation entry is reported as “not”. The “effect on anchorage independent growth” value in [6] (at 60 mM (so in the source)) is recorded as “little effect”. Further, the “inhibition of migration (wound-healing scratch assay)” value in test [7] (at 60 mM (so in the source)) was “did not inhibit”. For the same compound, the “inhibition of invasion (figure legend)” value in test [8] is recorded as “not”. Besides, the “effect on cell invasion” value in test [8] (at 60 mM (so in the source), FIG. 8b) is listed as “no effect”.
For `CN(CCc1ccccc1)C(=O)Nc1ccc2[nH]ncc2c1` [Compound 13, 3-(1H-Indazol-5-yl)-1-methyl-1-phenethylurea], the IC50 in [1] (triplicate experiments) came to 21500 ± 7300 nM; in test [2] (triplicate experiments), 7500 ± 1700 nM.
For `O=C(Nc1ccc2[nH]ncc2c1)N[C@H](CO)Cc1ccccc1` [Compound 14, (S)-1-(1-Hydroxy-3-phenylpropan-2-yl)-3-(1H-indazol-5-yl)urea], in that order: 4600 ± 2100 nM and 2300 ± 600 nM.
Turning to `O=C(NCC(O)c1ccccc1)Nc1ccc2[nH]ncc2c1` (stereo not shown) [Compound 15, 1-(2-Hydroxy-2-phenylethyl)-3-(1H-indazol-5-yl)urea], the IC50 in test [1] (triplicate experiments) stood at 2900 ± 800 nM; in [2], 1500 ± 400 nM.
Turning to `COc1ccc(CCNC(=O)Nc2ccc3[nH]ncc3c2)cc1` [Compound 16, 1-(1H-Indazol-5-yl)-3-(4-methoxyphenethyl)urea], the concentration for half-maximal inhibition (IC50) in test [1] (triplicate experiments) came to 2600 ± 600 nM; in test [2] (triplicate experiments) it was 800 ± 300 nM.
For `O=C(NCCc1ccc(Cl)cc1)Nc1ccc2[nH]ncc2c1` [Compound 17, 1-(4-Chlorophenethyl)-3-(1H-indazol-5-yl)urea], the IC50 in test [1] (triplicate experiments) was 2200 ± 1000 nM; in test [2] (triplicate experiments) it was 1100 ± 300 nM.
For `O=C(NCCc1ccccc1)Nc1ccc2[nH]ncc2c1` [Compound 18, 1-(1H-Indazol-5-yl)-3-phenethylurea], the P-MLC2 levels entry in test [9] (10 μM) is on record as “greatly decreased”. Also, in test [5] (listed as RKI-18), the “LPA-induced stress fiber formation” value is “inhibits”, the PDGF-induced lamelipodia formation entry is given as “inhibits” and the bradykinin-induced filopodia formation entry is given as “inhibits”. The “inhibition of anchorage-independent growth (figure legend)” value in [6] (MDA-MB-231, FIG. 7) is on record as “inhibits”. Besides, in test [10] (Homo sapiens, MDA-MB-231, 72 h, unit given as mM), the IC50 came to 0.032 mM. In [10] (MDA-MB-231), the “potency at anchorage-dependent proliferation compared to anchorage-independent growth” value is “four-fold less potent”. Also, in test [11], the “induction of apoptosis (caspase 3 activation and PARP cleavage)” value is recorded as “did not induce apoptosis”. Further, in test [7] (FIG. 8), the “inhibition of migration (figure legend)” value is reported as “inhibits”. Further, in test [7] (concentration-dependent manner starting at 3 mM (so in the source)), the “inhibition of migration (wound-healing scratch assay)” value is on record as “inhibited the migration”. Besides, in test [8], the “inhibition of invasion (figure legend)” value is listed as “inhibits”.
On to `O=C(NCCCc1ccccc1)Nc1ccc2[nH]ncc2c1` [Compound 19, 1-(1H-indazol-5-yl)-3-(3-phenylpropyl)urea], for which the IC50 in test [1] (triplicate experiments) amounted to 2460 ± 550 nM; in test [2] (triplicate experiments), 1070 nM.
For `O=C(NCc1ccccc1)Nc1ccc(-c2ccncc2)cc1` [Compound 22, 1-Benzyl-3-(4-(pyridin-4-yl)phenyl)urea], in that order: 1150 nM and 260 nM.
`O=C(Nc1ccc(-c2ccncc2)cc1)N[C@@H](CO)c1ccccc1` [Compound 23, (R)-1-(2-Hydroxy-1-phenylethyl)-3-(4-(pyridin-4-yl)phenyl)urea]: the “LE (Ligand Efficiency), ROCK1” value in test [1] turned out to be 0.28. The half-inhibitory concentration (IC50) in test [1] (triplicate experiments) turned out to be 9000 nM; in test [2] (triplicate experiments) it was 8000 nM; in test [2] (values in nM), 7520 nM. The “LE (Ligand Efficiency), ROCK2” value in test [2] worked out at 0.28. Moreover, the P-MLC2 levels result in test [9] (1 μM) is recorded as “no effect”; in test [9] (10 μM) it was “less potent than 24”.
`O=C(Nc1ccc(-c2ccncc2)cc1)N[C@H](CO)c1ccccc1` [Compound 24, (S)-1-(2-Hydroxy-1-phenylethyl)-3-(4-(pyridin-4-yl)phenyl)urea]: the “LE (Ligand Efficiency), ROCK1” value in test [1] is recorded as 0.31. The “fold difference for ROCK1” value in test [1] (24 (S) versus 23 (R)) is listed as “five fold”. Further, the IC50 was found to be 1700 nM in test [1] (triplicate experiments) and 100 nM in test [2] (triplicate experiments). Besides, in test [2], the “LE (Ligand Efficiency), ROCK2” value is recorded as 0.38. The “fold more kinase inhibitory activity for ROCK 2” value in test [2] (24 (S) versus 23 (R)) is listed as 75 fold. In addition, the P-MLC2 levels result in [9] (1 μM) and in test [9] (10 μM) was “greatly decreased” each time.
With `O=C(NCCc1ccccc1)Nc1ccc(-c2ccncc2)cc1` [Compound 25, 1-Phenethyl-3-(4-(pyridin-4-yl)phenyl)urea], the IC50 in [1] (triplicate experiments) came out at 2610 ± 410 nM; in [2] (triplicate experiments), 19800 ± 3290 nM.
As to `O=C(Nc1ccc(-c2ccncc2)cc1)N[C@@H](CO)Cc1ccccc1` [Compound 26, (R)-1-(1-Hydroxy-3-phenylpropan-2-yl)-3-(4-(pyridin-4-yl)phenyl)urea], the IC50 in [1] (triplicate experiments) worked out at 1410 nM; in [2] (triplicate experiments), 5360 nM.
As for `O=C(Nc1ccc(-c2ccncc2)cc1)N[C@H](CO)Cc1ccccc1` [Compound 27, (S)-1-(1-Hydroxy-3-phenylpropan-2-yl)-3-(4-(pyridin-4-yl)phenyl)urea], the IC50 in test [1] (triplicate experiments) was 31000 ± 10500 nM; in [2] (triplicate experiments), 32900 ± 4670 nM.
For the compound `CC(=O)Nc1ccc2[nH]ncc2c1` [N-(1H-indazole-5-yl)acetamide], the values for the IC50 in test [1] (triplicate experiments) and in test [2] (triplicate experiments) were 65000 nM and 40000 nM, respectively.
